# Experiments:
# Format in all cases: in vivo, human
# [1] = test system: circulating B cells, CD4+ TCM, CD4+ TN, Th17, Th2, CD8+ TCM, and CD8+TN cells; experiment: In depth immunophenotyping in healthy subjects (FIG. 3); details: 1 or 2 mg once daily, peaked at Day 7 pre-dose
# Description: (§1) A single-blind (ie, subject only), placebo-controlled, randomized, fixed-sequence, parallel design study evaluated PK, PD, safety, and tolerability in healthy Japanese and Caucasian male subjects (data reported herein is based on the preliminary clinical study report). A total of 49 subjects were enrolled and received 1 or 2 mg of Compound 1 or placebo once daily for 7 days followed by an additional single dose on Day 15, administered 1 week after a treatment-free period. […] The median percent change from baseline at Day 7 was −23.61% in the Japanese 1 mg group, −25.79% in the Caucasian 1 mg group, −50.00% in the Japanese 2 mg group, and −43.67% in the Caucasian 2 mg group. The median percent change from baseline at Day 15 (pre-dose) was 0.00% in the Japanese 1 mg group, −21.43% in the Caucasian 1 mg group, −6.67% in the Japanese 2 mg group, and −16.23% in the Caucasian 2 mg group. In depth immunophenotyping was performed in healthy subjects.
# lymphocyte count = experiment: Single-blind, placebo-controlled, randomized study of PK, PD, safety and tolerability: lymphocyte count
# Description: as §1
# [2] = Safety and tolerability in adult subjects, including Phase 1 studies with healthy adult subjects; details: approximately 281 adult subjects at various doses; single doses up to 5 mg, repeated doses up to 4 mg QD
# Description: (§2) Compound 1, or a pharmaceutically acceptable salt, solvate, or hydrate thereof, is an orally administered, selective, synthetic sphingosine 1-phosphate (S1P) receptor 1, 4, 5 modulator. […] Its safety and tolerability have been evaluated in Phase 1 studies with healthy adult subjects at single doses up to 5 mg and repeated doses up to 4 mg once daily (QD).
# UC = experiment: Phase 2 dose-ranging study in UC patients and open-label extension study; details: UC patients
# Description: as §2
smiles,measurement,setting,value
"O=C(O)C[C@H]1CCc2c1[nH]c1ccc(OCc3ccc(C4CCCC4)c(C(F)(F)F)c3)cc21 [Compound 1, (R)-2-(7-(4-cyclopentyl-3-(trifluoromethyl)benzyloxy)-1,2,3,4-tetrahydrocyclopenta[b]indol-3-yl)acetic acid]","median number of circulating B cells, CD4+ TCM, CD4+ TN, Th17, Th2, CD8+ TCM, and CD8+TN cells",[1],dose-dependent decrease
same,median percent change from baseline in lymphocyte count,"lymphocyte count; Day 7, Caucasian 1 mg group, once daily for 7 days, healthy male subjects",−25.79%
same,median percent change from baseline in lymphocyte count,"lymphocyte count; Day 7, Caucasian 2 mg group, once daily for 7 days, healthy male subjects",−43.67%
same,median percent change from baseline in lymphocyte count,"lymphocyte count; Day 7, Japanese 1 mg group, once daily for 7 days, healthy male subjects",−23.61%
same,median percent change from baseline in lymphocyte count,"lymphocyte count; Day 7, Japanese 2 mg group, once daily for 7 days, healthy male subjects",−50.00%
same,median percent change from baseline in lymphocyte count,"lymphocyte count; Day 15 (pre-dose), after 1 week treatment-free period, Caucasian 1 mg group",−21.43%
same,median percent change from baseline in lymphocyte count,"lymphocyte count; Day 15 (pre-dose), after 1 week treatment-free period, Caucasian 2 mg group",−16.23%
same,median percent change from baseline in lymphocyte count,"lymphocyte count; Day 15 (pre-dose), after 1 week treatment-free period, Japanese 1 mg group",0.00%
same,median percent change from baseline in lymphocyte count,"lymphocyte count; Day 15 (pre-dose), after 1 week treatment-free period, Japanese 2 mg group",−6.67%
same,median lymphocyte count,"lymphocyte count; all treatment groups, from first dose (Day 2) through end of repeated dosing period on Day 8",Progressive decreases
same,"total lymphocyte count, including Th2 T cells","lymphocyte count; healthy subjects, 1 or 2 mg once daily",dose-dependent decrease
same,safety and tolerability,[2],safe and well-tolerated
same,endoscopic and symptomatic improvements versus placebo,UC; 2 mg QD for 12 weeks,clinically meaningful and statistically significant endoscopic and symptomatic improvements
same,beneficial effects in open-label extension study,UC; up to 46 weeks,Sustained beneficial effects

# Source: patent US20220409580A1, “METHODS OF TREATING CONDITIONS RELATED TO THE S1P1 RECEPTOR” (Arena Pharmaceuticals, Inc., priority 2019, published 2022)
